Experimental data reported in paper PMC3617544 (The Open Medicinal Chemistry Journal, 2013).

What was measured:
BACE-1 [1] = target: T1, BACE-1 (Homo sapiens, UniProt P56817); test: BACE-1 enzyme assay; type: biochemical
BACE-1 [2] = target: T1, BACE-1; test: BACE-1 cell assay; conditions: HEK293, read-out: percent inhibition of BACE-1 in cell-based assay

T1 sequence (P56817 46-501): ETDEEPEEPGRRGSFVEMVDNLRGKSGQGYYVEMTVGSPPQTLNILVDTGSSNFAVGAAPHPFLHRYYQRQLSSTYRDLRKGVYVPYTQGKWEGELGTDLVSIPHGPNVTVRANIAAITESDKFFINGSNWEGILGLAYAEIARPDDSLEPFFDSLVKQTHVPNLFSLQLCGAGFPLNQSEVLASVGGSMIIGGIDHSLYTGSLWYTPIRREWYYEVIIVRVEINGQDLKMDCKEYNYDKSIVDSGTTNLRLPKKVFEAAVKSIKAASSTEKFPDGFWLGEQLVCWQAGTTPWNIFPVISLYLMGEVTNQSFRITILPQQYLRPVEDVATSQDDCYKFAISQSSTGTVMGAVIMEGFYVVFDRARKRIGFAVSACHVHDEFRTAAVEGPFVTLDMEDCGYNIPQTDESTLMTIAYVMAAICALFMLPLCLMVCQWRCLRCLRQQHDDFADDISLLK

Row | Structure (SMILES) | IC50 (BACE-1 [1]) [nM] | inhibition at 1 µM (BACE-1 [2]) [%]
1 | CO[C@H](C[C@H](O)[C@@H](N)COc1cccc(OCc2ccccc2)c1)C(=O)N[C@H](C(=O)NCc1ccccc1)C(C)C [Compound 17, (2R,4S,5S)-5-Amino-6-(3-benzyloxy-phenoxy)-4-hydroxy-2-methoxy-hexanoic acid ((S)-1-benzylcarbamoyl-2-methyl-propyl)-amide] | > 10000 | –
2 | CO[C@H](C[C@H](O)[C@H](COc1ccc(OCc2ccccc2)cc1)NC(=O)c1cccc(N(C)S(C)(=O)=O)c1)C(=O)N[C@H](C(=O)NCc1ccccc1)C(C)C [Compound 19, N-[(1S,2S,4R)-4-((S)-1-Benzylcarbamoyl-2-methyl-propylcarbamoyl)-1-(4-benzyloxy-phenoxymethyl)-2-hydroxy-4-methoxy-butyl]-3-(methanesulfonyl-methyl-amino)-benzamide] | 4600 | –
3 | COCCCOc1cc(OC[C@H](N)[C@@H](O)C[C@@H](OC)C(=O)N[C@H](C(=O)NCc2ccc(Cl)cc2)C(C)C)ccc1-c1ccc(F)cc1 [Compound 20, (2R,4S,5S)-5-Amino-6-[4'-fluoro-2-(3-methoxy-propoxy)-biphenyl-4-yloxy]-4-hydroxy-2-methoxy-hexanoic acid [(S)-1-(4-chloro-benzylcarbamoyl)-2-methyl-propyl]-amide] | 2700 | –
4 | CC[C@H](C)[C@H](NC(=O)[C@@H](C[C@H](O)[C@@H](N)COc1ccc(-c2ccc(F)cc2)cc1)OC)C(=O)NCc1ccc(Cl)cc1 [Compound 23, (2R,4S,5S)-5-Amino-6-(4'-fluoro-biphenyl-4-yloxy)-4-hydroxy-2-methoxy-hexanoic acid [(1S,2S)-1-(4-chloro-benzylcarbamoyl)-2-methyl-butyl]-amide] | > 10000 | –
5 | CC[C@H](C)[C@H](NC(=O)[C@@H](C[C@H](O)[C@H](COc1ccc(-c2ccccc2)c(OCCCOC)c1)NC(=O)c1cc(C(=O)N[C@H](C)c2ccccc2)cc(N(C)S(C)(=O)=O)c1)OC)C(=O)NCc1ccc(Cl)cc1 [Compound 25, N-{(1S,2S,4R)-4-[(1S,2S)-1-(4-Chloro-benzylcarbamoyl)-2-methyl-butylcarbamoyl]-2-hydroxy-4-methoxy-1-[2-(3-methoxypropoxy)-biphenyl-4-yloxymethyl]-butyl}-5-(methanesulfonyl-methyl-amino)-N'-((R)-1-phenyl-ethyl)-isophthalamide] | 69 | 3
6 | CC[C@H](C)[C@@H](CNc1ccc(Cl)cc1)NC(=O)[C@H](Cc1ccccc1)C[C@H](O)[C@@H](N)COc1ccc(-c2ccc(F)cc2)c(OCCCOC)c1 [Compound 28, (2R,4S,5S)-5-amino-2-benzyl-N-((2S,3S)-1-(4-chlorophenylamino)-3-methylpentan-2-yl)-6-(4'-fluoro-2-(3-methoxypropoxy)biphenyl-4-yloxy)-4-hydroxyhexanamide] | 300 | 14
7 | CC[C@H](C)[C@@H](CNc1ccc(Cl)cc1)NC(=O)[C@@H](C[C@H](O)[C@@H](N)COc1ccc(-c2ccc(F)cc2)c(OCCCOC)c1)C(C)C [Compound 30, (2S,4S,5S)-5-amino-N-((2S,3S)-1-(4-chlorophenylamino)-3-methylpentan-2-yl)-6-(4'-fluoro-2-(3-methoxypropoxy)bi-phenyl-4-yloxy)-4-hydroxy-2-isopropylhexanamide] | 540 | 28
